Experimental data as given in US8304422B2, “Compositions and methods for inhibition of the JAK pathway” (Rigel Pharmaceuticals, Inc., priority 2007, dated 2012).
Blank lines part the entries; values can stand above or below the molecule they belong to.

Key:
BaF3 V617F cells; UKE-1 = experiment: Proliferation Assay (Cell Titer-Glo; Example 7); type: cell-based; conditions: proliferation 72 hours, inhibit JAK2 activity, cell line (BaF3 V617F or UKE-1) not stated
Summary of the method: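 Proliferation IC50s reflect 72 h compound exposure at 37 °C, read by Cell Titer-Glo luminescence. Compound was serially diluted 3-fold from a 5 mM DMSO stock and added as a 2× solution; BaF3 V617F cells were grown in RPMI/10% FBS, UKE-1 in Iscove's DMEM with FBS, equine serum and hydrocortisone.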

[1] = test system: Ramos B-Cell Line Stimulated with IL-4; experiment: Assay for Ramos B-Cell Line Stimulated with IL-4 (CD23 upregulation, FACS; Example 2); type: cell-based; conditions: human Ramos B cells, IL-4 50 units/mL for 20-24 hours, anti-CD23-PE
Source text: One means of assaying for such inhibition is detection of the effect of the 2,4-pyrimidinediamine compounds on the upregulation of downstream gene products. In the Ramos/IL4 assay, B-cells are stimulated with the cytokine Interleukin-4 (IL-4) leading to the activation of the JAK/Stat pathway through phosphorylation of the JAK family kinases, JAK1 and JAK3, which in turn phosphorylate and activate the transcription factor Stat-6. […] To study the effect of inhibitors (e.g., the 2,4-substituted pyrimindinediamine compounds described herein) on the JAK1 and JAK3 kinases, human Ramos B cells are stimulated with human IL-4. 20 to 24 hours post stimulation, cells are stained for upregulation of CD23 and analyzed using flow cytometry (FACS). […] An exemplary assay of this type is described in greater detail in Example 2.
B-cells stimulated with cytokine Interleukin-4 (IL-4) activate the JAK/Stat pathway through phosphorylation of the JAK family kinases, JAK-1 and JAK-3, which in turn phosphorylate and activate the transcription factor Stat-6. […] To study the effect of inhibitors on the JAK family kinases, human Ramos B cells are stimulated with human IL-4.
The Ramos B-cell line was acquired from ATCC (ATCC Catalog No. CRL-1596). The cells were cultured in RPMI 1640 (Cellgro, MediaTech, Inc., Herndon, Va., Cat No. 10-040-CM) with 10% fetal bovine serum (FBS), heat inactivated (JRH Biosciences, Inc, Lenexa, Kans., Cat No. 12106-500M) according to ATCC propagation protocol. Cells were maintained at a density of 3.5×10^5. The day before the experiment, Ramos B-cells were diluted to 3.5×10^5 cells/mL to ensure that they were in a logarithmic growth phase.
Cells were spun down and suspended in RPMI with 5% serum. 5×10^4 cells were used per point in a 96-well tissue culture plate. Cells were pre-incubated with compound or DMSO (Sigma-Aldrich, St. Louis, Mo., Cat No. D2650) vehicle control for 1 hour in a 37° C. incubator.
Cells were then stimulated with IL-4 (Peprotech Inc., Rocky Hill, N.J., Cat No. 200-04) for a final concentration of 50 units/mL for 20-24 hours. Cells were then spun down and stained with anti-CD23-PE (BD Pharmingen, San Diego, Calif., Cat No. 555711) and analyzed by FACS. Detection was performed using a BD LSR I System Flow Cytometer, purchased from Becton Dickinson Biosciences of San Jose, Calif.

Compound: Cc1cc(C)cc(Nc2ncc(C)c(Nc3cccc(CN(C)S(=O)(=O)C4CC4)c3)n2)c1 [II-40, N4-[3-(N-cyclopropylsulfonyl-N-methyl)aminomethyl]phenyl-N2-(3,5-dimethyl)phenyl-5-methyl-2,4-pyrimidinediamine]
- IC50 (BaF3 V617F cells; UKE-1): 2200 nM
- IC50 [1]: 704 nM

Compound: N#Cc1ccc(Nc2ncc(F)c(Nc3ccc(CNS(=O)(=O)C4CC4)cc3)n2)cc1Cl [II-5, N2-(3-chloro-4-cyano)phenyl-N4-(4-cyclopropylsulfonylaminomethyl)phenyl-5-fluoro-2,4-pyrimidinediamine]
- IC50 (BaF3 V617F cells; UKE-1): 6060 nM
- IC50 [1]: 364 nM

Compound: Cc1cc(C)cc(Nc2ncc(C)c(Nc3ccc(CN(C)S(=O)(=O)C4CC4)cc3)n2)c1 [II-39, N4-[4-(N-cyclopropylsulfonyl-N-methyl)aminomethyl]phenyl-N2-(3,5-dimethyl)phenyl-5-methyl-2,4-pyrimidinediamine]
- IC50 (BaF3 V617F cells; UKE-1): 2040 nM
- IC50 [1]: 327 nM

Compound: Cc1cc(C)cc(Nc2ncc(C)c(Nc3cccc(CNS(=O)(=O)C4CC4)c3)n2)c1 [II-11, N4-(3-cyclopropylsulfonylaminomethyl)phenyl-N2-(3,5-dimethyl)phenyl-5-methyl-2,4-pyrimidinediamine]
- IC50 (BaF3 V617F cells; UKE-1): 2800 nM
- IC50 [1]: 254 nM

Compound: Cc1cnc(Nc2ccc(C(N)=O)cc2)nc1Nc1ccc(CNS(=O)(=O)C2CC2)c(Cl)c1 [II-17, N2-(4-aminocarbonyl)phenyl-N4-(3-chloro-4-cyclopropylsulfonylaminomethyl)phenyl-5-methyl-2,4-pyrimidinediamine]
- IC50 (BaF3 V617F cells; UKE-1): 2950 nM
- IC50 [1]: 87.1 nM

Compound: O=S(=O)(NCc1ccc(Nc2nc(NC3CCCC3)ncc2F)cc1)C1CC1 [VIII-2, N2-cyclopentyl-N4-(4-cyclopropylsulfonylaminomethyl)phenyl-5-fluoro-2,4-pyrimidinediamine]
- IC50 (BaF3 V617F cells; UKE-1): 56100 nM
- IC50 [1]: 1920 nM

Compound: Cc1nc2cc(Nc3ncc(C)c(Nc4ccc(CNS(=O)(=O)C5CC5)cc4)n3)ccc2[nH]1 [III-3, N4-(4-cyclopropylsulfonylaminomethyl)phenyl-5-methyl-N2-(2-methylbenzoimidazol-5-yl)-2,4-pyrimidinediamine]
- IC50 (BaF3 V617F cells; UKE-1): 5800 nM
- IC50 [1]: 49.4 nM

Compound: Cc1cnc(Nc2ccc(C(N)=O)cc2)nc1Nc1ccc(CNS(=O)(=O)C2CC2)cc1 [II-31, N2-(4-aminocarbonyl)phenyl-N4-(4-cyclopropylsulfonylaminomethyl)phenyl-5-methyl-2,4-pyrimidinediamine]
- IC50 (BaF3 V617F cells; UKE-1): 2130 nM
- IC50 [1]: 35.7 nM

Compound: N#Cc1ccc(Nc2ncc(F)c(Nc3ccc(CNS(=O)(=O)C4CC4)cc3)n2)cc1 [II-29, N2-(4-cyano)phenyl-N4-(4-cyclopropylsulfonylaminomethyl)phenyl-5-fluoro-2,4-pyrimidinediamine]
- IC50 (BaF3 V617F cells; UKE-1): 12500 nM
- IC50 [1]: 78.6 nM

Compound: Cc1cnc(Nc2cccc(C#N)c2)nc1Nc1ccc(CN(C)S(=O)(=O)C2CC2)cc1 [II-28, N2-(3-cyano)phenyl-N4-[4-(N-cyclopropylsulfonyl-N-methyl)aminomethyl]phenyl-5-methyl-2,4-pyrimidinediamine]
- IC50 (BaF3 V617F cells; UKE-1): 10900 nM
- IC50 [1]: 233 nM

Compound: Cc1cnc(Nc2cccc(C(N)=O)c2)nc1Nc1cccc(CN(C)S(=O)(=O)C2CC2)c1 [II-22, N2-(3-aminocarbonyl)phenyl-N4-[3-(N-cyclopropylsulfonyl-N-methyl)aminomethyl]phenyl-5-methyl-2,4-pyrimidinediamine]
- IC50 (BaF3 V617F cells; UKE-1): 2690 nM
- IC50 [1]: 302 nM

These reach a lower IC50 (BaF3 V617F cells; UKE-1). Values come first.

- IC50 (BaF3 V617F cells; UKE-1): 708 nM
- IC50 [1]: 57.8 nM
Compound: COc1ccc(Nc2ncc(C)c(Nc3ccc(CNS(=O)(=O)C4CC4)cc3)n2)cc1Cl [II-10, N2-(3-chloro-4-methoxy)phenyl-N4-(4-cyclopropylsulfonylaminomethyl)phenyl-5-methyl-2,4-pyrimidinediamine]

- IC50 (BaF3 V617F cells; UKE-1): 1530 nM
- IC50 [1]: 52.3 nM
Compound: Cc1cnc(Nc2cccc(C(N)=O)c2)nc1Nc1ccc(CNS(=O)(=O)C2CC2)cc1 [II-32, N2-(3-aminocarbonyl)phenyl-N4-(4-cyclopropylsulfonylaminomethyl)phenyl-5-methyl-2,4-pyrimidinediamine]

- IC50 (BaF3 V617F cells; UKE-1): 359 nM
- IC50 [1]: 126 nM
Compound: COc1cc(Nc2ncc(C)c(Nc3cccc(CNS(=O)(=O)C4CC4)c3)n2)cc(OC)c1OC [II-13, N4-(3-cyclopropylsulfonylaminomethyl)phenyl-5-methyl-N2-(3,4,5-trimethoxy)phenyl-2,4-pyrimidinediamine]

- IC50 (BaF3 V617F cells; UKE-1): 599 nM
- IC50 [1]: 38.1 nM
Compound: Cc1cc(C)cc(Nc2ncc(Cl)c(Nc3ccc(CNS(=O)(=O)C4CC4)cc3)n2)c1 [II-36, 5-chloro-N4-(4-cyclopropylsulfonylaminomethyl)phenyl-N2-(3,5-dimethyl)phenyl-2,4-pyrimidinediamine]

- IC50 (BaF3 V617F cells; UKE-1): 478 nM
- IC50 [1]: 110 nM
Compound: Cc1cc(C)cc(Nc2ncc(C)c(Nc3ccc4c(c3)CCN(S(=O)(=O)C3CC3)C4)n2)c1 [VIII-7, N4-[(N-cyclopropylsulfonyl)-1,2,3,4-tetrahydroisoquinolin-6-yl]-N2-(3,5-dimethyl)phenyl-5-methyl-2,4-pyrimidinediamine]

- IC50 (BaF3 V617F cells; UKE-1): 408 nM
- IC50 [1]: 82.6 nM
Compound: COc1cc(Nc2ncc(C)c(Nc3ccc(CNS(=O)(=O)C4CC4)cc3)n2)cc(OC)c1OC [II-9, N4-(4-cyclopropylsulfonylaminomethyl)phenyl-5-methyl-N2-(3,4,5-trimethoxy)phenyl-2,4-pyrimidinediamine]

- IC50 (BaF3 V617F cells; UKE-1): 912 nM
- IC50 [1]: 48.9 nM
Compound: COc1ccc(Nc2ncc(Cl)c(Nc3ccc(CNS(=O)(=O)C4CC4)cc3)n2)cc1Cl [II-35, 5-chloro-N2-(3-chloro-4-methoxy)phenyl-N4-(4-cyclopropylsulfonylaminomethyl)phenyl-2,4-pyrimidinediamine]

- IC50 (BaF3 V617F cells; UKE-1): 807 nM
- IC50 [1]: 1220 nM
Compound: Cc1cnc(Nc2ccc(C3CCN(C)CC3)cc2)nc1Nc1ccc2c(c1)C(NS(C)(=O)=O)CC2 (racemic) [V-2, (+/−)-5-Methyl-N2-[4-(1-methyl-4-piperidinyl)pheny]-N4-[1-(methylsulfonyl)aminoindan-6-yl]-2,4-pyrimidinediamine]

- IC50 (BaF3 V617F cells; UKE-1): 138 nM
- IC50 [1]: 36.4 nM
Compound: CCN1CCN(c2ccc(Nc3ncc(F)c(Nc4ccc(CNS(=O)(=O)C5CC5)cc4)n3)cc2C)CC1 [II-6, N4-(4-cyclopropylsulfonylaminomethyl)phenyl-N2-[4-(4-ethylpiperazino)-3-methyl]phenyl-5-fluoro-2,4-pyrimidinediamine]

- IC50 (BaF3 V617F cells; UKE-1): 488 nM
- IC50 [1]: 78.3 nM
Compound: COc1c(C)cc(Nc2ncc(C)c(Nc3cccc(CNS(=O)(=O)C4CC4)c3)n2)cc1C [II-44, N4-(3-cyclopropylsulfonylaminomethyl)phenyl-N2-(3,5-dimethyl-4-methoxy)phenyl-5-methyl-2,4-pyrimidinediamine]

- IC50 (BaF3 V617F cells; UKE-1): 1450 nM
- IC50 [1]: 26.6 nM
Compound: Cc1nc2cc(Nc3ncc(Cl)c(Nc4ccc(CNS(=O)(=O)C5CC5)cc4)n3)ccc2[nH]1 [III-6, 5-chloro-N4-(4-cyclopropylsulfonylaminomethyl)phenyl-N2-(2-methylbenzoimidazol-5-yl)-2,4-pyrimidinediamine]

- IC50 (BaF3 V617F cells; UKE-1): 130 nM
- IC50 [1]: 101 nM
Compound: CCN1CCN(c2ccc(Nc3ncc(C)c(Nc4cccc(CNS(=O)(=O)C5CC5)c4)n3)cc2C)CC1 [II-12, N4-(3-cyclopropylsulfonylaminomethyl)phenyl-N2-[4-(4-ethylpiperazino)-3-methyl]phenyl-5-methyl-2,4-pyrimidinediamine]

- IC50 (BaF3 V617F cells; UKE-1): 200 nM
- IC50 [1]: 36.2 nM
Compound: CCN1CCN(c2ccc(Nc3ncc(C)c(Nc4ccc(CNS(=O)(=O)C5CC5)cc4)n3)cc2C)CC1 [II-8, N4-(4-cyclopropylsulfonylaminomethyl)phenyl-N2-[4-(4-ethylpiperazino)-3-methyl]phenyl-5-methyl-2,4-pyrimidinediamine]

- IC50 (BaF3 V617F cells; UKE-1): 23.9 nM
- IC50 [1]: 38.6 nM
Compound: COc1c(C)cc(Nc2ncc(Cl)c(Nc3ccc(CNS(=O)(=O)C4CC4)cc3)n2)cc1C [II-43, 5-chloro-N4-(4-cyclopropylsulfonylaminomethyl)phenyl-N2-(3,5-dimethyl-4-methoxy)phenyl-2,4-pyrimidinediamine]

- IC50 (BaF3 V617F cells; UKE-1): 405 nM
- IC50 [1]: 123 nM
Compound: COc1cc(Nc2ncc(F)c(Nc3ccc(CNS(=O)(=O)C4CC4)cc3)n2)cc(OC)c1OC [II-1, N4-(4-cyclopropylsulfonylaminomethyl)phenyl-5-fluoro-N2-(3,4,5-trimethoxy)phenyl-2,4-pyrimidinediamine]
